Results from US20060148858A1, “1, 2-Azole derivatives with hypoglycemic and hypolipidemic activity” (priority 2002, published 2006).
Read-outs that look alike come from different tables or passages of the source.

What was measured:
KKAY mice [1] = assay: Plasma anti-arteriosclerosis index-enhancing action in mice (Test Example 2); format: in vivo; conditions: Mus musculus, po, 96 h, 0.005% in powdery diet, four days, percent increase of (HDL cholesterol/total cholesterol)x100, non-treatment group taken as 100%
Method: Test compounds were mixed in a powdery diet (CE-2, Japan Clea) at the concentration of 0.005%, and freely given to KKAY mice (9 to 12 weeks old, 5 mice per group), a model of obese and non-insulin dependent diabetes (type 2 diabetes), for four days. During this period, water was given freely. Blood was sampled from orbital venous plexus and components in plasma separated from blood were determined. Total cholesterol levels were determined by using L type Wako Cholesterol (Wako Pure Chemical Industries, Ltd.). Precipitation reagent for HDL cholesterol (Wako Pure Chemical Industries, Ltd.) was added to a part of the plasma to precipitate non-HDL lipoprotein, and cholesterol (HDL cholesterol) in the resulting supernatant was determined. The plasma anti-arteriosclerosis index [(HDL cholesterol/total cholesterol)×100] was calculated by using these cholesterol levels.
In the Table, “Plasma anti-arteriosclerosis index-enhancing action (%)” represents the percent increase (%) of plasma anti-arteriosclerosis index in the treatment group, when the plasma anti-arteriosclerosis index in the non-treatment group is taken as 100%.

PPARδ-RXRα heterodimer = molecular target: T1, PPARδ-RXRα heterodimer (Homo sapiens, UniProt Q03181); assay: PPARδ-RXRα heterodimer ligand activity, luciferase reporter in COS-1 transformant (Test Example 4); format: cell-based; conditions: COS-1 transformant (hPPARδ, hRXRα, reporter), 36-48 hours, concentration for 50% of the maximum fold induction
T1 construct: expressed in transfected cells; host or cells: COS-1
T1 sequence (Q03181 1-441): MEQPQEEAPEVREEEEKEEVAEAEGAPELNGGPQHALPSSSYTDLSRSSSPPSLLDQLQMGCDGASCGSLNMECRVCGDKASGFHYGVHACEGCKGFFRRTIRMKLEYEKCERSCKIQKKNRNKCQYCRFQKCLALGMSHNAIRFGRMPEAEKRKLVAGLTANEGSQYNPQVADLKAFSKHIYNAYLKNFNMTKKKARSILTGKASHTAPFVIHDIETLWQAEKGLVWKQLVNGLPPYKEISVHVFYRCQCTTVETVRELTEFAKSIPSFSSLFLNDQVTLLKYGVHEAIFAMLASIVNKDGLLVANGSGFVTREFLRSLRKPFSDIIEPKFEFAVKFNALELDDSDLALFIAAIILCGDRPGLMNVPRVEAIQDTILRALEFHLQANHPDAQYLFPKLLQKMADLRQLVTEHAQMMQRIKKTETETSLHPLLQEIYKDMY
T1 sequence (P19793 1-462 partner): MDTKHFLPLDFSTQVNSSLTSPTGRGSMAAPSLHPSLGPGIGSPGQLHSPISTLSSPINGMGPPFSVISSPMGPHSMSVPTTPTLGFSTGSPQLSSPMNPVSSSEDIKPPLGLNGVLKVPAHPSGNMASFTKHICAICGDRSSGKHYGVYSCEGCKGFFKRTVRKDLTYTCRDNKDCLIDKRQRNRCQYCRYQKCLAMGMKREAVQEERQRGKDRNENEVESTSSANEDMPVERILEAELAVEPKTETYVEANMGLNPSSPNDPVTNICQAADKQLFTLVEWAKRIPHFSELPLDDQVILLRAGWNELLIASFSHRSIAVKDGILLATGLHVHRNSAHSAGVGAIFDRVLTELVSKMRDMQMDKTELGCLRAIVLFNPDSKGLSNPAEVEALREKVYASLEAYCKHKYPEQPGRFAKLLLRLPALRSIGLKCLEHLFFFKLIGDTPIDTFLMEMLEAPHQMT
In short: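 COS-1 cells transiently co-transfected with human PPARδ, human RXRα, PPRE-luciferase reporter and pRL-tk, then exposed to compound 36-48 h at 37 °C in DMEM with 0.1% fatty acid-free BSA. Luciferase read as fold induction over untreated; EC50 at 50% of maximal fold induction.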

KKAY mice [2] = assay: Hypoglycemic and hypolipidemic actions in mice (Test Example 1); format: in vivo; conditions: Mus musculus, po, 96 h, 0.005% in powdery diet, four days, non-treated group taken as 100%
In short: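 KKAY mice (9 to 12 weeks old, 5 per group) were fed diet containing 0.005% test compound ad libitum for four days. Plasma glucose and triglycerides from orbital venous blood were measured enzymatically, reported as % decrease relative to untreated group (100%).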

PPARγ-RXRα heterodimer = molecular target: T2, PPARγ-RXRα heterodimer (Homo sapiens, UniProt P37231); assay: PPARγ-RXRα heterodimer ligand activity, luciferase reporter in PPARγ:RXRα:4ERPP/CHO-K1 cells (Test Example 3); format: cell-based; conditions: 18-48 hours, concentration for 50% of the maximum fold induction
T2 construct: expressed in transfected cells; host or cells: CHO-K1
T2 sequence (P37231 1-477 isoform P37231-2): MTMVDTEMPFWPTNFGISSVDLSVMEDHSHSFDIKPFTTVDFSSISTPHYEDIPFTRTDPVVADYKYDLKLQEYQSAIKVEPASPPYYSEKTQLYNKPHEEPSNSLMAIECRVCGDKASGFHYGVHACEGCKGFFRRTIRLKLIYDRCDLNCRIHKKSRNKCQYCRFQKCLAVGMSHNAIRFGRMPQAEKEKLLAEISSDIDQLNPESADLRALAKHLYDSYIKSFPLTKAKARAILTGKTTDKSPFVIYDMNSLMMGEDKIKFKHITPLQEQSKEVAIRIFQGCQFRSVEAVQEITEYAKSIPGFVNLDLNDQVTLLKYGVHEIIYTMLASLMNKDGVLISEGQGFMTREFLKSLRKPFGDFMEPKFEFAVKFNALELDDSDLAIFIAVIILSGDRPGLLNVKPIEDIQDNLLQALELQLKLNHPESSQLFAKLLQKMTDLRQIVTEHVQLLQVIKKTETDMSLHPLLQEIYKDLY
T2 sequence (P19793 1-462 partner): T1 sequence (P19793 1-462 partner)
In short: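 Stable CHO-K1 line co-expressing hPPARγ/RXR with 4ERPP-TK luciferase reporter, 2×10^4 cells per well, treated 18-48 h at 37° C. in HAM F12 with 0.1% fatty acid-free BSA. Luciferase fold induction versus untreated taken as 1; EC50 is concentration giving 50% of maximal fold induction.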

[3] = rate of decrease in blood glucose level, read-out: Hypoglycemic action (%)
[4] = rate of decrease in blood triglyceride level, read-out: Hypolipidemic action (%)

SMILES | EC50 (PPARδ-RXRα heterodimer) [nM] | melting point [°C] | EC50 (PPARγ-RXRα heterodimer) [nM] | change in vivo at 0.005 % in diet (KKAY mice [1]) [%] | inhibition in vivo at 0.005 % in diet (KKAY mice [2]; [3]) [%] | inhibition in vivo at 0.005 % in diet (KKAY mice [2]; [4]) [%]
Cc1nn(-c2ccc(C(F)(F)F)cn2)cc1COc1ccc(OC(C)(C)C(=O)O)cc1 [Example 34, 2-methyl-2-(4-{3-methyl-1-[5-(trifluoromethyl)-2-pyridyl]-1H-pyrazol-4-ylmethoxy}phenoxy)propionic acid] | 8.1 | 106 to 107 |  | 20 | 49 | 77
CCC(CC)c1nn(-c2ccc(Cl)cn2)cc1CCCOc1c(C)cccc1CC(=O)O [Example 224, (2-{3-[1-(5-chloro-2-pyridyl)-3-(1-ethylpropyl)-1H-pyrazol-4-yl]propoxy}-3-methylphenyl)acetic acid] |  | 106 to 107 |  | 14 | 48 | 60
CCc1cccc(CC(=O)O)c1OCCCc1cn(-c2ccc(Cl)cn2)nc1C(CC)CC [Example 253, (2-{3-[1-(5-chloro-2-pyridinyl)-3-(1-ethylpropyl)-1H-pyrazol-4-yl]propoxy}-3-ethylphenyl)acetic acid] |  | 114 to 115 |  | 16 | 49 | 35
Cn1cc(CC(=O)O)c(OCCCc2cn(-c3ccc(C(F)(F)F)cn3)nc2C2CCCCC2)n1 [Example 303, [3-(3-{3-cyclohexyl-1-[5-(trifluoromethyl)-2-pyridinyl]-1H-pyrazol-4-yl}propoxy)-1-methyl-1H-pyrazol-4-yl]acetic acid] |  | 157 to 158 | 52 | 14 |  | 
CCn1cc(CC(=O)O)c(OCCCc2cn(-c3ccc(C(F)(F)F)cn3)nc2C(C)C)n1 [Example 313, [1-ethyl-3-(3-{3-isopropyl-1-[5-(trifluoromethyl)-2-pyridinyl]-1H-pyrazol-4-yl}propoxy)-1H-pyrazol-4-yl]acetic acid] |  | 99 to 100 |  | 15 | 51 | 48
COc1cccc(CC(=O)O)c1OCCCc1cn(-c2ccc(C(C)=O)cn2)nc1C(C)C [Example 332, (2-{3-[1-(5-acetyl-2-pyridinyl)-3-isopropyl-1H-pyrazol-4-yl]propoxy}-3-methoxyphenyl)acetic acid] |  | 148 to 149 | 29 | 11 |  | 
CCC(CC)c1nn(-c2ccc(C(F)(F)F)cn2)cc1CCCOc1nn(CC)cc1CC(=O)O [Example 333, [1-ethyl-3-(3-{3-(1-ethylpropyl)-1-[5-(trifluoromethyl)-2-pyridinyl]-1H-pyrazol-4-yl}propoxy)-1H-pyrazol-4-yl]acetic acid] |  |  | 61 | 11 |  | 

Continued, in another order:

EC50 (PPARδ-RXRα heterodimer) [nM] | melting point [°C] | EC50 (PPARγ-RXRα heterodimer) [nM] | SMILES | change in vivo at 0.005 % in diet (KKAY mice [1]) [%] | inhibition in vivo at 0.005 % in diet (KKAY mice [2]; [3]) [%] | inhibition in vivo at 0.005 % in diet (KKAY mice [2]; [4]) [%]
8.6 | 82 to 83 |  | CC(C)c1nn(-c2ccc(C(F)(F)F)cn2)cc1CCCOc1cccc(CC(=O)O)c1 [Example 22, [3-(3-{3-isopropyl-1-[5-(trifluoromethyl)-2-pyridyl]-1H-pyrazol-4-yl}propoxy)phenyl]acetic acid] | 12 |  | 
1.6 | 96 to 97 |  | CCOc1cc(OCCCc2cn(-c3ccc(C(F)(F)F)cn3)nc2OCC)ccc1CCC(=O)O [Example 35, 3-[2-ethoxy-4-(3-{3-ethoxy-1-[5-(trifluoromethyl)-2-pyridyl]-1H-pyrazol-4-yl}propoxy)phenyl]propionic acid] | 14 | 30 | 32
 | 92 to 93 |  | CCOc1cccc(CC(=O)O)c1OCCCc1cn(-c2ccc(Cl)cn2)nc1C(CC)CC [Example 225, (2-{3-[1-(5-chloro-2-pyridyl)-3-(1-ethylpropyl)-1H-pyrazol-4-yl]propoxy}-3-ethoxyphenyl)acetic acid] | 12 | 31 | 35
 | 133 to 134 |  | CCCc1nn(-c2ccc(C(F)(F)F)cn2)cc1CCCOc1c(CC(=O)O)cccc1OCC [Example 260, [3-ethoxy-2-(3-{3-propyl-1-[5-(trifluoromethyl)-2-pyridyl]-1H-pyrazol-4-yl}propoxy)phenyl]acetic acid] | 22 | 42 | 44
 | 141 to 142 |  | CCOc1cccc(CC(=O)O)c1OCCCc1cn(-c2ccc(C(F)(F)F)cn2)nc1C(C)C [Example 300, [3-ethoxy-2-(3-{3-isopropyl-1-[5-(trifluoromethyl)-2-pyridinyl]-1H-pyrazol-4-yl}propoxy)phenyl]acetic acid] | 12 | 36 | 39
 | 127 to 128 | 37 | O=C(O)Cc1ccccc1OCCCc1cn(-c2ccc(C(F)(F)F)cn2)nc1C1CCCCC1 [Example 302, [2-(3-{3-cyclohexyl-1-[5-(trifluoromethyl)-2-pyridinyl]-1H-pyrazol-4-yl}propoxy)phenyl]acetic acid] | 24 |  | 
 | 105 to 106 |  | CCCc1nn(-c2ccc(C(F)(F)F)cn2)cc1CCCOc1nn(CC)cc1CC(=O)O [Example 305, [1-ethyl-3-(3-{3-propyl-1-[5-(trifluoromethyl)-2-pyridinyl]-1H-pyrazol-4-yl}propoxy)-1H-pyrazol-4-yl]acetic acid] | 22 | 50 | 55
 | 81 to 82 |  | CCC(CC)c1nn(-c2ccc(C(F)(F)F)nn2)cc1CCCOc1c(CC(=O)O)cccc1OC [Example 339, [2-(3-{3-(1-ethylpropyl)-1-[6-(trifluoromethyl)pyridazin-3-yl]-1H-pyrazol-4-yl}propoxy)-3-methoxyphenyl]acetic acid] | 22 | 50 | 54
